Experimental data: patent US8926955B2, “Synthesis of polymer conjugates of indolocarbazole compounds” (priority 2008, dated 2015)

Assays:
guinea pig [1] = test: Photoirritation test in guinea pigs; type: in vivo
Description: The potential of the test item 0.1% cream to cause photoallergic and/or photoirritant reactions following topical application to the skin, in association with exposure to ultraviolet light, was assessed using a guinea pig model.
In the first phase, an assessment of the photoirritant properties of the test item was performed in 6 groups of animals. These were used both to establish suitable concentrations of the test item for use in the sensitisation assay and to provide information on photo-induced irritation. Animals were treated as follows (Table 6):
The photoirritation test was undertaken using 2 (irradiated) groups, each of 5 animals, treated with the control and test items, cream placebo and test item 0.1% cream, respectively (cf. Table 6, groups 1 and 3) and 2 similarly constituted groups (cf. Table 6, groups 2 and 4), treated in the same manner but not irradiated. Aliquots of the undiluted test or control item (100%), 2 concentrations (20% and 50% in purified water) of the test and control items and the vehicle alone (purified water), were spread evenly over defined skin sites prepared on the dorsum of the animals. Animals of the irradiated groups (groups 1 and 3) were exposed to both UVA (10 Joules/cm^2) and UVB (0.1 Joules/cm^2) radiation following dosing. […]

[2] = test system: Chinese hamster ovary cells; test: Chromosome aberrations in Chinese hamster ovary cells in vitro (photomutagenicity assay); settings: 3 hours treatment, absence or presence of ultraviolet light
Description: The test item was assayed for the ability to cause chromosomal damage in Chinese hamster ovary cells, following in vitro treatment in the absence and presence of UVA/UVB irradiation.
Solutions of the test item were prepared in Hank's Balanced Salt Solution (HBSS).
Both in the absence and presence of UV light, the cells were treated for 3 hours and the harvest time of 20 hours, corresponding to approximately 1.5 cell cycle, was used.
The experiment included appropriate negative and positive controls. Two cell cultures were prepared at each test point.
Dose levels were selected for the scoring of chromosomal aberrations on the basis of the cytotoxicity of the test item treatments as determined by the reduction of cell counts at the time of harvesting.
One hundred metaphase spreads were scored for chromosomal aberrations from each culture.

Balb/c 3T3 cells = type: cell-based; settings: mouse
Description: The potential in vitro phototoxicity of the test item was evaluated by the measurements of neutral red uptake for cellular toxicity on cultures of Balb/c 3T3 cells treated with different doses of the test item and exposed to UVA irradiation. Test item solutions were prepared using Earle's Balanced Salt Solution (EBSS).
A preliminary dose-range finding experiment in the presence (+UVA) and in the absence (−UVA) of light was undertaken in order to select appropriate dose levels for the main assays. The test item was assayed at a maximum dose level of 1000 μg/ml (the upper limit indicated in the study protocol) and at a wide range of lower dose levels: 500, 250, 125, 62.5, 31.3, 15.6 and 7.81 μg/ml. […] In this case the chemical is considered to be non-phototoxic. The same dose range was used for the main assay.
A main experiment was performed using the following dose levels: 1000, 500, 250, 125, 62.5, 31.3, 15.6 and 7.81 μg/ml.

guinea pig [3] = test: Photosensitisation test in guinea pigs; type: in vivo
Description: The second phase of the study was an assessment of sensitisation, in which a total of 5 groups were treated as follows (Table 7):
The photosensitisation test was undertaken using 2 groups of 10 animals (cf. Table 7, groups 8 and 9) induced with the control item and the test item and 1 control group of 10 animals (cf. Table 7, group 7) induced with the selected vehicle (purified water). In an attempt to induce sensitisation, animals were intradermally injected with an emulsion of Freund's complete adjuvant. The test and control items, at 100% concentration, were applied topically over the area among the injection sites of FCA a total of 6 times over a 2 week period. Animals were exposed to both UVA (10 Joules/cm^2) and UVB (0.1 Joules/cm^2) radiation following dosing. Control group animals were treated in the same manner but the selected vehicle (purified water) was used in place of the test or control items. Approximately 2 weeks after the final induction exposure, all animals were challenged by topical application of both the vehicle and the test or control item at 20% and 50% concentrations, respectively. These concentrations were selected as they were considered non-irritant to the skin in association with ultraviolet irradiation on the basis of the results obtained at the photoirritation test. Animals of the 2 test groups and the control group were exposed to both UVA (10 Joules/cm^2) and UVB (0.1 Joule/cm^2) radiation following dosing. Additional sites on each animal were topically treated with both the vehicle and test or control items, but treatment was not followed by exposure to ultraviolet irradiation. Approximately 24, 48 and 72 hours after challenge exposure the treated sites were examined for evidence of reaction to treatment.
One group of 5 animals (cf. Table 7, group 11) was induced with this substance at a concentration of 15% in acetone. A control group of 3 animals (cf. Table 7, group 10) was treated in the same manner with the vehicle alone (acetone). A concentration of 10% of the reference item (Musk Ambrette) in acetone was selected for the challenge. […]

COc1c2occc2cc2ccc(=O)oc12 [8-Methoxypsoralen]
skin reaction (guinea pig [1]; exposed to ultraviolet light, concentrations 0.01% and 0.1%): well defined to moderate erythema and a slight oedema
skin reaction (guinea pig [1]; without exposure to ultraviolet light): No response was seen
cells bearing chromosomal aberrations (including or excluding gaps) [2]: Statistically significant increases

CN(C)CCCN1c2ccccc2Sc2ccc(Cl)cc21 [Chlorpromazine, reference compound]
Photo Irritation Factor (PIF) (Balb/c 3T3 cells): 21.9

COc1c(C(C)(C)C)cc([N+](=O)[O-])c(C)c1[N+](=O)[O-] [Musk Ambrette]
response at challenge (guinea pig [3]; group 10, induced with the vehicle): No response to the reference item was observed
animals responding at challenge (very slight to slight erythema) (guinea pig [3]; group 11 (induced at 15% in acetone), challenge at 10% followed by UV irradiation): 4/5
response at challenge (guinea pig [3]; group 11, sites treated but not irradiated): No response to the reference item was observed
